Data taken from ChEMBL document CHEMBL5346896, “Development of indolealkylamine derivatives as potential multi-target agents for COVID-19 treatment” (Eur J Med Chem, 2023).
Activity calls are given as the source filed them. The calls are words filed in the database; no cut-off is given here.

What was measured:
Homo sapiens [1] = species on record: Homo sapiens; test: Selectivity ratio of pKi for displacement of 2-[125I]iodomelatonin from human melatonin MT1 receptor stably expressed in human HEK293 cell membrane to pKi for displacement of 2-[125I]iodomelatonin from human melatonin MT2 receptor stably expressed in human HEK293 cell membrane
[2] = target: Angiotensin-converting enzyme 2 (Homo sapiens) (UniProt Q9BYF1); test: Inhibition of recombinant ACE2 (unknown origin) exopeptidase activity using fluorogenic substrate at 0.5 to 10 uM incubated for 1 hrs by fluorescence based analysis; settings: dose 0.5-10 µM
[3] = target: T1, Melatonin receptor type 1A (Homo sapiens, UniProt P48039); test: Partial agonist activity at human melatonin MT1 receptor expressed in HEK293 cells co-transfected with Galphai9 chimera construct assessed as stimulation of inositol phosphate production by HTRF based assay; type: functional, cell-based
[4] = target: T2, Melatonin receptor type 1B (Homo sapiens, UniProt P49286); test: Displacement of 2-[125I]iodomelatonin from human melatonin MT2 receptor stably expressed in human HEK293 cell membrane assessed as inhibition constant incubated for 120 mins by rapid filtration based competition binding assay; type: cell membranes
T2 sequence (P49286 whole entry): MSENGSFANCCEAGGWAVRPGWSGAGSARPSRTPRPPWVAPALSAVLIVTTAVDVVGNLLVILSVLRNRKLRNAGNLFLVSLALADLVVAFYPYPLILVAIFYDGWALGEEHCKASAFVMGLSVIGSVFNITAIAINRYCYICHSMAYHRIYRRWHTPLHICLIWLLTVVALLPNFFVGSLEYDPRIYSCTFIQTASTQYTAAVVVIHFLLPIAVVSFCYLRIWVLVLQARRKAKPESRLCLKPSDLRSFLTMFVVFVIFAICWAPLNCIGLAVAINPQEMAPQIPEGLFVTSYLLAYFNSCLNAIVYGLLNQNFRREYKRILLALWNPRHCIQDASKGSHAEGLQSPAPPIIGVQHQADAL

[5] = target: T1, Melatonin receptor type 1A; test: Displacement of 2-[125I]iodomelatonin from human melatonin MT1 receptor stably expressed in HEK293 cell membrane assessed as inhibition constant incubated for 120 mins by rapid filtration based competition binding assay; type: cell membranes
[6] = target: T2, Melatonin receptor type 1B; test: Partial agonist activity at human melatonin MT2 receptor expressed in HEK293 cells co-transfected with Galphai9 chimera construct assessed as stimulation of inositol phosphate production by HTRF based assay; type: functional, cell-based
[7] = target: Spike glycoprotein/Angiotensin-converting enzyme 2 (Severe acute respiratory syndrome coronavirus 2) (UniProt Q9BYF1+P0DTC2); test: Inhibition of d2-labelled SARS-CoV-2 spike protein RBD-terbium labelled SNAP tagged human ACE2 interaction transfected in HEK293 cells at 100 uM preincubated with cells for 1 hrs followed by RBD-d2 addition and measured after 2 hrs by TR-FRET assay relative to control; type: cell-based; settings: time 3.0 hrs
Homo sapiens [8] = species on record: Homo sapiens; test: Inhibition of CAMKII (unknown origin) using syntide-2 as substrate assessed as maximum efficacy at 50 uM incubated for 30 mins by spectrophotometric analysis relative to control
[9] = Inhibition of CAMKII (unknown origin) using syntide-2 as substrate assessed as maximum efficacy incubated for 30 mins by spectrophotometric analysis; design: species or system Homo sapiens
[10] = target: T1, Melatonin receptor type 1A; test: Inverse agonist activity at human melatonin MT1 receptor expressed in HEK293 cells co-transfected with Galphai9 chimera construct assessed as stimulation of inositol phosphate production by HTRF based assay; type: functional, cell-based
Vero [11] = test: Cytotoxicity against African green monkey Vero cells assessed as effect on cell viability; type: toxicity, cell-based; settings: chlorocebus sabaeus
[12] = target: Replicase polyprotein 1ab (Severe acute respiratory syndrome coronavirus 2) (UniProt P0DTD1); test: Inhibition of SARS-CoV-2 main protease transfected in HEK293T cells co-transfected with gain of signal Src and Tat-Luc reporter construct at 1 uM measured 48 hrs post transfection by luciferase based analysis relative to control; type: cell-based
HEK-293T = test: Cytotoxicity against HEK293T cells expressing human ACE2 assessed as effect on cell viability; type: toxicity, cell-based
SARS-CoV-2 [13] = test: Antiviral activity against SARS-CoV-2 infected in African green monkey Vero cells assessed as inhibition of viral replication at 1 uM preincubated with cells for 1 hrs followed by viral infection by FISH-flow quantification analysis; type: functional, organism-based; settings: Severe acute respiratory syndrome coronavirus 2
SARS-CoV-2 [14] = test: Antiviral activity against SARS-CoV-2 infected in African green monkey Vero cells assessed as inhibition of viral replication at 10 uM preincubated with cells for 1 hrs followed by viral infection by FISH-flow quantification analysis; type: functional, organism-based; settings: Severe acute respiratory syndrome coronavirus 2
Vero [15] = test: Cytotoxicity against African green monkey Vero cells infected with SARS-CoV-2 assessed as effect on cell viability; type: toxicity, cell-based; settings: chlorocebus sabaeus
SARS-CoV-2 [16] = test: Antiviral activity against SARS-CoV-2 assessed as inhibition of viral replication; type: functional, organism-based; settings: Severe acute respiratory syndrome coronavirus 2
[17] = target: Angiotensin-converting enzyme 2 (Homo sapiens) (UniProt Q9BYF1); test: Inhibition of recombinant ACE2 (unknown origin) exopeptidase activity using fluorogenic substrate at 0.5 to 10 uM incubated for 1 hrs by fluorescence based analysis relative to control; settings: dose 0.5-10 µM

Sequence of Angiotensin-converting enzyme 2 (Homo sapiens) (Q9BYF1 18-805 limits assumed): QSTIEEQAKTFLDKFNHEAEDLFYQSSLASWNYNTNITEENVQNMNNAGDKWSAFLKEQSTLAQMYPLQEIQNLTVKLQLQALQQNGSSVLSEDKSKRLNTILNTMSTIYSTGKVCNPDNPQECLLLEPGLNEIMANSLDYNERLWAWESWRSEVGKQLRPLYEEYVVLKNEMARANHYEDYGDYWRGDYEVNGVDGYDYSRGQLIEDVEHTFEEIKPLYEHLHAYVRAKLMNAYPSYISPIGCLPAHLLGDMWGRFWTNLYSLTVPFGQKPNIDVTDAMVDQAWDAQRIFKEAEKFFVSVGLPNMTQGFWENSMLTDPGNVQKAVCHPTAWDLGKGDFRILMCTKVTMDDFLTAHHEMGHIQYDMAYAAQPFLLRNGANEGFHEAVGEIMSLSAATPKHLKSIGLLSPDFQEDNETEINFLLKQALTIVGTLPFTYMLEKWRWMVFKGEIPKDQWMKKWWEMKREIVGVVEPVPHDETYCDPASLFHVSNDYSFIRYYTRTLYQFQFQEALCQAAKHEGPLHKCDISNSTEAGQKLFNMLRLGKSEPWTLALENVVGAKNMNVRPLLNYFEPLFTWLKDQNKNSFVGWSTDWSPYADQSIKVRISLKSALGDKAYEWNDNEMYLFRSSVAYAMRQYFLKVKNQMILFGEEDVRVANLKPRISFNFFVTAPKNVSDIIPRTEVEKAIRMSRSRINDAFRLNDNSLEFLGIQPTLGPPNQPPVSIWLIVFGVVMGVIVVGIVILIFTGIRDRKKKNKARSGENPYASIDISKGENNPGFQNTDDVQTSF
T1 sequence (P48039 whole entry): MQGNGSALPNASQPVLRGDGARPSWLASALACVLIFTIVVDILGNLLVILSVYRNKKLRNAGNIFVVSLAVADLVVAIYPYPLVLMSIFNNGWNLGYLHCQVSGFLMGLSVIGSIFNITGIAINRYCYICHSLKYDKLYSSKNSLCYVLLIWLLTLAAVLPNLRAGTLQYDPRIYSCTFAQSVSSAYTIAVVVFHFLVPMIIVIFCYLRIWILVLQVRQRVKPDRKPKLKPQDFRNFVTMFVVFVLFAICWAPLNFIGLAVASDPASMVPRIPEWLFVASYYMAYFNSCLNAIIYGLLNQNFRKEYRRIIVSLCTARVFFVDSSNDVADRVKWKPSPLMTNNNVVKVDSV

| Compound | Ratio pKi (Homo sapiens [1]) | inhibition [2] | Ki [4] [µM] | Ki [5] [µM] | inhibition [7] [%] | Imax (Homo sapiens [8]) [%] | also measured |
| --- | --- | --- | --- | --- | --- | --- | --- |
| COc1ccc2[nH]c(C(O)c3ccccc3)c(CCNC(C)=O)c2c1 (centres undefined) | 0.98 | inactive | 0.977 | 1.26 | 20 |  | EC50 [3]: 0.525 µM; EC50 [6]: 0.224 µM |
| COC(=O)NCCc1c(C(O)c2ccccc2)[nH]c2ccccc12 (centres undefined) | 0.81 |  | 2 | 22.9 |  |  |  |
| CC(=O)NCCc1c(C(O)c2ccccc2)[nH]c2ccccc12 (centres undefined) | 0.93 |  | 1 | 2.75 |  |  |  |
| CCC(=O)NCC[C@@H]1CCc2ccc3c(c21)CCO3 |  |  |  |  |  | 20 |  |
| COc1ccc2cccc(CCNC(C)=O)c2c1 |  |  |  |  |  | 20 |  |
| COc1ccc2[nH]c(C(O)c3ccc(F)cc3)c(CCNC(C)=O)c2c1 (centres undefined) | 0.98 | inactive | 4.57 | 5.37 | 20 | 40 | EC50 [3]: < 10 µM; EC50 [9]: ~25 µM; EC50 [6]: < 10 µM |
| O=C(NCCc1c(C(O)c2ccccc2)[nH]c2ccccc12)C(F)(F)F (centres undefined) | 0.94 |  | 1.15 | 2.51 |  |  | EC50 [10]: < 10 µM |
| COC(=O)NCCc1c(C(O)c2ccc(OC)cc2F)[nH]c2ccc(OC)cc12 (centres undefined) | 1.07 | inactive | 4.9 | 2.04 |  |  | EC50 [3]: < 10 µM; EC50 [6]: < 10 µM |
| COc1ccc2[nH]cc(CCNC(C)=O)c2c1 |  |  |  |  |  | 20 |  |
| COC(=O)NCCc1c(C(O)c2ccc(Cl)cc2)[nH]c2ccccc12 (centres undefined) | 0.87 |  | 5.25 | 25.1 |  |  |  |
| COc1ccc2[nH]c(C(O)c3ccc(Cl)cc3)c(CCNC(C)=O)c2c1 (centres undefined) |  | inactive | 0.0513 | 0.513 | 35 | 40 | Activity (Vero [11]): Non-Toxic; inhibition [12]: < 20%; EC50 [9]: ~25 µM; Activity (HEK-293T): Non-Toxic; Activity (SARS-CoV-2 [13]): inactive; Activity (SARS-CoV-2 [14]): inactive; Activity (Vero [15]): Non-Toxic |
| CC(=O)NCCc1c(C(O)c2ccc(Cl)cc2)[nH]c2ccccc12 (centres undefined) | 0.99 | inactive | 4.37 | 4.47 | 20 |  |  |
| O=C(Oc1cncc(Cl)c1)c1cccc2[nH]ccc12 |  |  |  |  |  |  | IC50 (SARS-CoV-2 [16]): 2.8 µM |
| COc1ccc(C(O)c2[nH]c3ccc(OC)cc3c2CCNC(C)=O)c(F)c1 (centres undefined) | 0.79 | inactive | 0.295 | 6.76 |  |  |  |
| COC(=O)NCCc1c(C(O)c2ccccc2)[nH]c2ccc(OC)cc12 (centres undefined) |  | inactive | 0.191 | 0.891 | 20 | 40 | Activity (Vero [11]): Non-Toxic; inhibition [12]: > 70%; EC50 [3]: < 10 µM; EC50 [9]: ~25 µM; Activity (HEK-293T): Non-Toxic; EC50 [6]: < 10 µM; Activity (SARS-CoV-2 [13]): inactive; Activity (SARS-CoV-2 [14]): Active; Activity (Vero [15]): Non-Toxic |
| COC(=O)NCCc1c(C(O)c2ccc(F)cc2)[nH]c2ccc(OC)cc12 (centres undefined) | 0.94 | inactive | 0.741 | 1.82 |  |  | EC50 [3]: 3.16 µM; EC50 [6]: 0.257 µM |
| CN1CC(=O)NC(CCc2c(C(O)c3ccccc3N)[nH]c3ccccc23)C1=O (centres undefined) | 0.92 |  | 17 | 41.7 |  |  |  |
| COc1ccc(C(O)c2[nH]c3ccc(OC)cc3c2CCNC(C)=O)cc1 (centres undefined) | 0.8 | inactive | 0.427 | 7.59 | 20 |  |  |
| COC(=O)NCCc1c(C(O)c2ccc(OC)cc2)[nH]c2ccc(OC)cc12 (centres undefined) | 0.94 | inactive | 66.1 | 110 | 20 |  |  |
| CC(=O)NCC(=O)N[C@@H](CC(=O)O)C(=O)N[C@@H](Cc1ccc(O)cc1)C(=O)N[C@@H](CO)C(=O)N[C@@H](Cc1cnc[nH]1)C(=O)N[C@H]1CSSC[C@@H](C(=O)N[C@H](C(=O)N[C@@H](Cc2ccc(O)cc2)C(=O)N2CCC[C@H]2C(=O)N[C@@H](CC(=O)O)C(=O)N2CCC[C@H]2C(=O)N[C@@H](CCC(=O)O)C(=O)NCC(=O)NCC(=O)NCC(N)=O)[C@@H](C)O)NC(=O)[C@H](CCCCN)NC(=O)[C@H](Cc2c[nH]c3ccccc23)NC(=O)[C@H](Cc2c[nH]c3ccccc23)NC(=O)[C@@H]2CCCN2C(=O)[C@H](Cc2ccc(O)cc2)NC(=O)[C@H](Cc2ccc(O)cc2)NC(=O)[C@H](CCCNC(=N)N)NC(=O)[C@H](CC(C)C)NC(=O)[C@@H]2CCCN2C(=O)[C@H](CO)NC1=O |  |  |  |  |  |  | inhibition [17]: 100% |
